Experiment [1] deals with T1, full-length human HuR protein (Homo sapiens, UniProt Q15717).
T1 construct: full-length human HuR protein was produced by the KU COBRE-PSF Protein Purification Group; made in house
As to the kind of experiment: FP assay of HuR-Msi1 ARE binding inhibition. As to conditions: HuR-Msi1 ARE interaction; read-out: HuR Ki via FP assay. From the text: A fluorescence polarization (FP)-based binding assay was utilized to assess the inhibition of HuR protein interaction with the ARE site of Msi1 mRNA (“HuR-Msi1^ARE”) by compounds of interest. Briefly, full-length human HuR protein was produced by the KU COBRE-PSF Protein Purification Group and Bcl2, Msi1 and XIAP mRNA sequences (16 nt) were designed based on literature precedent^23,24,31,32. Fluorescein labeled RNAs were purchased from Dharmacon with the following sequences: Msi1 RNA: 5′-[…]-3′-fluorescein; Bcl-2 RNA: 5′-[…]-3′-fluorescein; XIAP RNA: 5′-[…] UGUC-3′-fluorescein, and a 16-nt degenerative RNA with 3′-fluorescein label was used as a negative control.
(§1) With the FP assay of HuR-Msi1ARE binding, the inhibition of the HuR-Msi1ARE interaction by various compounds of the present technology was assessed. Similar FP assays for Musashi 2 (Msi2) and for RNA-binding protein Lin-28 homolog B (LIN28B) were also performed on various compounds of the present technology. The results of such assays for HuR are provided in Table 1 alongside the compound structures as well as ID numbers for ease of reference; the results of such assays for Msi1, Msi2, and LIN28B are provided in Table 2.

The subject of experiment [2] is triple-negative breast cancer cell line MDA-MB-231. The experiment can be described thus: Cytotoxicity assay (WST-8), MDA-MB-231. The experiment is classed as cell-based. As to conditions: Homo sapiens, 96 h incubation. How it is done: The cytotoxicity of various compounds of the present technology in several cancer cell lines (pancreatic cancer cell line MIAPaCa-2, triple-negative breast cancer cell line MDA-MB-231, and colon cancer cell lines HCT116, HCT116 β/W, and RKO) was assessed by a cytotoxicity assay. Cells were seeded in 96-well culture plates (3,000-5,000 cells/well) and treated with titrated compounds in triplicate. After 96 h incubation, cell growth medium was removed and proliferation reagent WST-8 (Sigma) was added to each well and incubated at 37° C. for 1-3 h. Absorbance was then measured with a plate reader at 450 nm with correction at 650 nm. The results were expressed as the percentage of absorbance of treated wells versus that of vehicle control. IC50, the drug concentration causing 50% growth inhibition, was calculated via sigmoid curve fitting using GraphPad Prism 5.0. The results for those compounds tested against MIAPaCa-2 and MDA-MB-231 are provided in Table 1; the results for those compounds tested against colon cancer cell lines HCT116, HCT116 β/W, and RKO are provided in Table 3.
(Formazan colour is commonly taken as a measure of viable cells.)

For a further experiment, the target named is Musashi 2 (Msi2) (Homo sapiens, UniProt Q96DH6). As to the kind of experiment: Msi2 FP assay. The experiment is classed as binding. How it is done:
as §1

The next experiment concerns the target Msi1 (Homo sapiens, UniProt O43347). The experiment can be described thus: Msi1 FP assay. Type of experiment: binding. The procedure: as §1
The target of experiment [3] is T2, RNA-binding protein Lin-28 homolog B (LIN28B) (Homo sapiens, UniProt Q6ZN17).
T2 sequence (Q6ZN17 1-250): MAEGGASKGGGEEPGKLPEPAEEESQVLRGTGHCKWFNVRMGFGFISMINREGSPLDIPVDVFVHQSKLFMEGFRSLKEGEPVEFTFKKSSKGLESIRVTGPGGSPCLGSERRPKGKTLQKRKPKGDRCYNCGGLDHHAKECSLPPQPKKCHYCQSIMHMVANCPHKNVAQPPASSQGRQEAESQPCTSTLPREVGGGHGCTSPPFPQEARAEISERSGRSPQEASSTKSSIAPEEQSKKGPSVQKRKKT
The experiment can be described thus: LIN28B FP assay. How it is done:
as §1

Where [4] appears, read: cell without (RRM1) mark, read-out: Msi2 (Ki).
Setting [5] is: cell marked (RRM1), read-out: Msi2 (Ki) (RRM1).

Each structure is given as a SMILES string. Where a name gives a salt, the structure may show the parent alone. Read-outs that look alike come from different tables or passages of the source.

This passage reports Ki and IC50 results from US20220213052A1, “INHIBITORS OF RNA-BINDING PROTEINS, COMPOSITIONS THEREOF, AND THERAPEUTIC USES THEROF” (The University of North Carolina at Chapel Hill, priority 2019, published 2022).

As a reminder, the Ki is the dissociation constant of the complex between target and ligand, obtained from inhibition or displacement. Broadly, the IC50 is the concentration needed to halve the response being measured. Read a low IC50 as inhibition by little substance.

T1 sequence (Q15717 whole entry): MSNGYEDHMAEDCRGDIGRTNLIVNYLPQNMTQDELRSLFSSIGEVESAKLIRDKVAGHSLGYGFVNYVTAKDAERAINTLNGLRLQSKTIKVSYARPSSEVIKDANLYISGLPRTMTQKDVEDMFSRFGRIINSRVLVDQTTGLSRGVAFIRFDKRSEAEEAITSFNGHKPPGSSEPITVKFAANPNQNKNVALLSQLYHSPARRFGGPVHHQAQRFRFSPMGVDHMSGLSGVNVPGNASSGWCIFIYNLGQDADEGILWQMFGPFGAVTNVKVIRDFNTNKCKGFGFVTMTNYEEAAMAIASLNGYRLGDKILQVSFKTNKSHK
Chain of Msi1 (O43347 whole entry, species assumed): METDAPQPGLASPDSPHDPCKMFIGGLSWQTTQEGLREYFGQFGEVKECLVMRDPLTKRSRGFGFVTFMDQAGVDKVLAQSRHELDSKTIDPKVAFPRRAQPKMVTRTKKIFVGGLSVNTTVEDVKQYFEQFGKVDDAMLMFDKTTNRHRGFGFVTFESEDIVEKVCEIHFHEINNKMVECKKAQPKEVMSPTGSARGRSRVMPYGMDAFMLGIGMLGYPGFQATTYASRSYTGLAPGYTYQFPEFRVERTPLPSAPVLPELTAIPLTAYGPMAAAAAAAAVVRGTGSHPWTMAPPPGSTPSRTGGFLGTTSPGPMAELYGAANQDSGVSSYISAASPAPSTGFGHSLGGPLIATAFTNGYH
Chain of Musashi 2 (Msi2) (Q96DH6 whole entry, species assumed): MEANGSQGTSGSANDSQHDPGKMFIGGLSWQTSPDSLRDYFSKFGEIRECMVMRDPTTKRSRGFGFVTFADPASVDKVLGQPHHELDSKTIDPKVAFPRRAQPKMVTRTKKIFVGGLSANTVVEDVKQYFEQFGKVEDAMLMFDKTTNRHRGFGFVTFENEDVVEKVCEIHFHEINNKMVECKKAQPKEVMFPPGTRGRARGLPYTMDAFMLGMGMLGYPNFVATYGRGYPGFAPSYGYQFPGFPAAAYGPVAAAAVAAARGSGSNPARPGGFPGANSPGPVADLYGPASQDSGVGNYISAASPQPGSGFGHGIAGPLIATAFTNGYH

As to `CC(C)(C)c1ccc(C(=O)Nc2ccc3sc(/C=C/C(N)=O)cc3c2)cc1` [KH-19C, (E)-N-(2-(3-amino-3-oxoprop-1-en-1-yl)benzo[b]thiophen-5-yl)-4-(tert-butyl)benzamide], the Ki was 0.6 µM in experiment [1], 4.83 µM at Musashi 2 (Msi2) (setting [4]), above 20 µM on Msi1 and above 20 µM in experiment [3]. The same molecule displayed an IC50 in experiment [2] of 8.68 µM.
In the case of `CC(C)(C)c1ccc(C(=O)Nc2ccc3sc(/C=C/C(=O)NN)cc3c2)cc1` [KH-19E, (E)-4-(tert-butyl)-N-(2-(3-hydrazinyl-3-oxoprop-1-en-1-yl)benzo[b]thiophen-5-yl)benzamide], the Ki in experiment [1] is 0.19 µM; at Musashi 2 (Msi2) (setting [4]), above 20 µM; on Msi1, above 20 µM; in experiment [3], above 20 µM. In addition, in experiment [2], the midpoint of inhibition, the IC50, lay at 28.4 µM.
Regarding `CC(C)(C)c1ccc(C(=O)Nc2ccc3sc(CCC(=O)NO)cc3c2)cc1` [KH-22, 4-(tert-Butyl)-N-(2-(3-(hydroxyamino)-3-oxopropyl)benzo[b]thiophen-5-yl)benzamide], the Ki in experiment [1] is 0.83 µM; on Musashi 2 (Msi2) (setting [4]) it was above 20 µM; on Msi1, above 20 µM; in experiment [3] it was above 20 µM. Also, it took 3.48 µM to reach half-maximal inhibition in experiment [2] (IC50).
Turning to `O=C(O)/C=C/c1cc2cc(NC(=O)c3ccc(F)cc3)ccc2s1` [KH-23A, (E)-3-(5-(4-Fluorobenzamido)benzo[b]thiophen-2-yl)acrylic acid], the inhibitory constant (Ki) (in experiment [1]; at Musashi 2 (Msi2) (setting [4]); at Msi1; in experiment [3]) was above 20 µM throughout.
For the molecule `O=C(O)CCc1cc2cc(NC(=O)c3ccc(F)cc3)ccc2s1` [KH-28A, 3-(5-(4-Fluorobenzamido)benzo[b]thiophen-2-yl)propanoic acid], the Ki (in experiment [1]; at Musashi 2 (Msi2) (setting [4]); on Msi1; in experiment [3]) was above 20 µM in each case.
For `CC(C)(C)c1ccc(C(=O)Nc2ccc3[nH]c(C(=O)NN)cc3c2)cc1` [KH-39E, 4-(tert-butyl)-N-(2-(hydrazinecarbonyl)-1H-indol-5-yl)benzamide], the Ki in experiment [1] is 1.67 µM; in experiment [3], above 20 µM. Moreover, in experiment [2], half-maximal inhibition (IC50) was put at 13.5 µM.
Regarding `CC(C)(C)c1ccc(C(=O)Nc2ccc3sc(C(=O)NO)cc3c2)cc1` [KH-43, 5-(4-(tert-butyl)benzamido)-N-hydroxybenzo[b]thiophene-2-carboxamide], the Ki in experiment [1] worked out at 0.44 µM; at Musashi 2 (Msi2) (setting [5]), 2.9 µM; in experiment [3] it was 2.7 µM. The molecule also displayed an IC50 in experiment [2] of 3.71 µM.
For `CC(C)(C)c1ccc(C(=O)Nc2ccc3sc(C(=O)O)cc3c2)cc1` [KH-43A, 5-(4-(tert-butyl)benzamido)benzo[b]thiophene-2-carboxylic acid], in that order: 5.08 µM, 5.25 µM, above 20 µM and 90.5 µM.
Turning to `O=C(/C=C/c1cc2cc(NC(=O)C3CCCCC3)ccc2s1)NO` [KH-46, (E)-N-(2-(3-(hydroxyamino)-3-oxoprop-1-en-1-yl)benzo[b]thiophen-5-yl) cyclohexanecarboxamide], the values for the Ki (in experiment [1]; on Musashi 2 (Msi2) (setting [4]); in experiment [3]) were 1.29 µM, above 20 µM and 5.84 µM, respectively. Half-maximal inhibition in experiment [2] (IC50) required 3.5 µM.
Taken in the same sequence, the figures for `O=C(O)/C=C/c1cc2cc(NC(=O)C3CCCCC3)ccc2s1` [KH-46A, (E)-3-(5-(cyclohexanecarboxamido)benzo[b]thiophen-2-yl)acrylic acid] were 4.27 µM, above 20 µM, above 20 µM and above 100 µM.
Consider `O=C(/C=C/c1cc2cc(NC(=O)c3ccccn3)ccc2s1)NO` [KH-47, (E)-N-(2-(3-(hydroxyamino)-3-oxoprop-1-en-1-yl)benzo[b]thiophen-5-yl) picolinamide hydrochloride], for which the Ki was 4.44 µM in experiment [1], above 20 µM on Musashi 2 (Msi2) (setting [4]) and above 20 µM in experiment [3]. The same molecule showed an IC50 in experiment [2] of 3.11 µM.
Consider `O=C(O)/C=C/c1cc2cc(NC(=O)c3ccccn3)ccc2s1` [KH-47A, (E)-3-(5-(picolinamido)benzo[b]thiophen-2-yl)acrylic acid hydrochloride], for which the figures for the inhibition constant (Ki) (in experiment [1]; at Musashi 2 (Msi2) (setting [5]); in experiment [3]) were 1.81 µM, 6.8 µM and above 20 µM, respectively. The IC50 in experiment [2] was 18.2 µM.
Taken in the same sequence, the figures for `CC(C)(C)c1ccc(C(=O)Nc2ccc3[nH]c(/C=C/C(=O)NO)cc3c2)cc1` [KH-48, (E)-4-(tert-butyl)-N-(2-(3-(hydroxyamino)-3-oxoprop-1-en-1-yl)-1H-indol-5-yl)benzamide] were 0.34 µM, 3.91 µM, 8.79 µM and 2.24 µM.
Taken in the same sequence, the figures for `CC(C)(C)c1ccc(C(=O)Nc2ccc3[nH]c(/C=C/C(=O)O)cc3c2)cc1` [KH-48A, (E)-3-(5-(4-(tert-butyl)benzamido)-1H-indol-2-yl)acrylic acid] were 3.35 µM, 4.8 µM, above 20 µM and above 100 µM.
Take `CN(C)c1ccc(C(=O)Nc2ccc3[nH]c(/C=C/C(=O)NO)cc3c2)cc1` [KH-52, (E)-4-(dimethylamino)-N-(2-(3-(hydroxyamino)-3-oxoprop-1-en-1-yl)-1H-indol-5-yl)benzamide]: the Ki is 0.69 µM in experiment [1], above 20 µM on Musashi 2 (Msi2) (setting [4]) and above 20 µM in experiment [3]. The IC50 in experiment [2] is 8.91 µM.
With `CN(C)c1ccc(C(=O)Nc2ccc3[nH]c(/C=C/C(=O)O)cc3c2)cc1` [KH-52A, (E)-3-(5-(4-(dimethylamino)benzamido)-1H-indol-2-yl)acrylic acid], the Ki was 7.76 µM in experiment [1], 27.1 µM at Musashi 2 (Msi2) (setting [5]) and above 20 µM in experiment [3]. Further, the IC50 in experiment [2] is above 100 µM.
For the molecule `O=C(Nc1ccc2[nH]c(C(=O)O)cc2c1)c1ccccn1` [KH-56A, 5-(picolinamido)-1H-indole-2-carboxylic acid hydrochloride], the Ki (in experiment [1]; on Musashi 2 (Msi2) (setting [4]); in experiment [3]) was above 20 µM in each case. In experiment [2], this molecule came in with an IC50 above 100 µM.
Regarding `CN(C)c1ccc(C(=O)Nc2ccc3[nH]c(C(=O)NO)cc3c2)cc1` [KH-57, 5-(4-(dimethylamino)benzamido)-N-hydroxy-1H-indole-2-carboxamide], the Ki is 3.31 µM in experiment [1], above 20 µM on Musashi 2 (Msi2) (setting [4]) and above 20 µM in experiment [3]. In experiment [2], this molecule returned an IC50 of 11.3 µM.
Consider `CN(C)c1ccc(C(=O)Nc2ccc3[nH]c(C(=O)O)cc3c2)cc1` [KH-57A, 5-(4-(dimethylamino)benzamido)-1H-indole-2-carboxylic acid], for which the results for the Ki (in experiment [1]; on Musashi 2 (Msi2) (setting [5]); in experiment [3]) were 0.78 µM, 2.1 µM and above 20 µM, respectively. In experiment [2], 100 µM corresponded to half-maximal inhibition (IC50).
For `CN(C)c1ccc(C(=O)Nc2ccc3sc(C(=O)O)cc3c2)cc1` [KH-58A, 5-(4-(Dimethylamino)benzamido)benzo[b]thiophene-2-carboxylic acid], in that order: 2.37 µM, 6.6 µM, above 20 µM and above 100 µM.
For the molecule `O=C(Nc1ccc2sc(C(=O)NO)cc2c1)c1ccccn1` [KH-60, N-(2-(hydroxycarbamoyl)benzo[b]thiophen-5-yl)picolinamide], the Ki in experiment [1] was 3.23 µM; at Musashi 2 (Msi2) (setting [4]) it was above 20 µM; in experiment [3], above 20 µM. Moreover, in experiment [2], the 50% inhibitory concentration (IC50) is 4.43 µM.
As for `O=C(Nc1ccc2sc(C(=O)O)cc2c1)c1ccccn1` [KH-60A, 5-(Picolinamido)benzo[b]thiophene-2-carboxylic acid hydrochloride], the Ki in experiment [1] is 1.14 µM; at Musashi 2 (Msi2) (setting [5]) it was 4.6 µM; in experiment [3], above 20 µM. The same molecule came in with an IC50 in experiment [2] above 100 µM.
